We go through 1 molecule from patent US11136297B2, “Compositions and methods for treating cancer” (THE REGENTS OF THE UNIVERSITY OF CALIFORNIA, priority 2016, dated 2021).

“Also recorded” adds a separate entry of the source.

Experiment [1] addresses T1, full-length wild-type K-Ras (Homo sapiens, UniProt P01116).
T1 construct: His6; made in house; host or cells: Escherichia coli BL21(DE3)
Kind of experiment: Disulfide fragment labeling of full-length wild-type K-Ras (Cys 72 selectivity). It counts as binding. Conditions: wild-type K-Ras contains 4 native cysteine residues.

Experiment [2] has as its target T2, H-Ras(M72C) GppNHp binding to Raf-1-RBD (Homo sapiens, UniProt P01112, M72C).
T2 construct: and H-Ras (residues 1-166) were transformed into Escherichia coli; His6; made in house; host or cells: Escherichia coli BL21(DE3)
Kind of experiment: Ras GppNHp in vitro pull down by His6-MBP-Raf-1-RBD. The settings on record: H-Ras(M72C) pre-labeled with compound. On the procedure: Ras GppNHp In Vitro Pull Down Assay by His6-MBP-Raf-1-RBD. For each His6-MBP-Raf-1-RBD in vitro pull down the total volume was 500 μL. Each reaction had the following final composition: Either 20, 80, 200, 400, or 800 nM Ras GppNHp (from 0.2 mg/mL Ras stock), 75 nM BSA (2.5 μg, 5 μL of 0.5 mg/mL BSA stock), 200 nM of His6-MBP-Raf-1-RBD (5.3 μg, 1.2 μL of 4.38 mg/mL stock of His6-MBP-Raf-1-RBDwitt), and Raf Pull Down Buffer to volume (25 mM Tris (pH 7.2), 150 mM NaCl, 5 mM MgCl2, 1% NP-40, 5% glycerol, 20 mM imidazole). Samples were then mixed by gentle rotation at 4° C. for 30 min. While equilibrating, add 50 μL Ni-NTA slurry (Qiagen) to a cellulose acetate spin cup and spin at 5,000 rpm on a tabletop centrifuge for 30 seconds. Wash the beads with 400 μL of Raf Pull Down Buffer to wash away bead storage buffer. Before adding each pull down solution, take 10 μL and save as a loading control sample. To each spin cup filled with washed Ni-NTA beads, add the remaining equilibrated pull down solution, seal the spin cup with parafilm and let rotate at 4° C. for 30 more minutes. After mixing, centrifuge the sample for 30 seconds at 5,000 rpm. Toss flow through. Wash the beads X 5 with 400 μL of Raf Pull Down Buffer. After last wash, centrifuge one last time to remove any excess buffer stuck to the beads. […] Blots were read out using LICOR compatible secondary antibodies. […]

The target in experiment [3] is T3, H-Ras(M72C) activation by SOScat (Homo sapiens, UniProt P01112, M72C).
T3 construct: and H-Ras (residues 1-166) were transformed into Escherichia coli; His6; made in house; host or cells: Escherichia coli BL21(DE3)
Kind of experiment: SOScat catalyzed nucleotide exchange read out by Raf-1-RBD pull-down. The class given is biochemical. Here is the method:
FIGS. 29A-29D. […] FIG. 29D: Reconstruction of Ras cycle is achieved by inducing nucleotide exchange of 100 nM Ras by various concentrations of SOS^cat for either 1 or 2 hours and subsequent pull-down by Raf-1-RBD.
FIGS. 33A-33D. […] In FIG. 33B) through FIG. 33D), normalized pull-down signals are shown below the blot. S. E. M for each signal, number of replicates, and […] for each comparative Standard T-Test are summarized herein (see Tables 33B, 33C, and 33D). […] Comparative statistics were done for normalized pull-down signals between protein constructs of the same condition (i.e. in FIG. 33B) and FIG. 33C), column 1 for unlabeled and 1 for labeled protein, 2 for unlabeled and 2 for labeled, and so on were statistically compared, and in FIG. 33D) only the +SOS^cat and +GppNHp lanes were compared across protein constructs). FIG. 33A) Cartoon representation of pull down protocol. […] Reported values are quantified pull-down signals normalized to input. FIG. 33B) Cartoon representation of pull down protocol. […] FIG. 33C) Cartoon representation of pull down protocol. […] FIG. 33D) Cartoon representation of pull down protocol. Ras activation is achieved by catalyzing nucleotide exchange by SOS^cat and indirectly reading out activated Ras by subsequent pull down by Raf-1-RBD.

Regarding `COc1ccc(-n2ncc(C(=O)NCCCSSCCN(C)C)c2C(F)(F)F)cc1` [Compound 2C07, N-(3-((2-(dimethylamino)ethyl)disulfanyl)propyl)-1-(4-methoxyphenyl)-5-(trifluoromethyl)-1H-pyrazole-4-carboxamide], in experiment [1], the “modification of full-length wild-type K-Ras” value is “did not modify”. The “Raf-1-RBD binding (pull down), labeled vs unlabeled H-Ras(M72C)” value in experiment [2] is “no significant difference in Raf-1-RBD binding”. In experiment [3], the “SOScat catalyzed nucleotide exchange” value was “inhibits activation of H-Ras by SOS^cat; also recorded: inhibits SOS^cat catalyzed nucleotide exchange”.
